Results: US20250127801A1, “BRIDGED TRICYCLIC CARBAMOYLPYRIDONE COMPOUNDS AND USES THEREOF” (priority 2023, published 2025)
Values after ≈ are worked out from the molar mass of the structure shown. Where two headings read alike, the source gives them in different places.

How the values were obtained:
in vitro = details: human; for CC50 at 5 days: uninfected MT-4 cells
physchem = details: 23 °C, thermodynamic from solid; for solubility thermodynamic at 24 h: FaSSIF
HIV-1 (IIIB) = assay: microbe, parasite or virus in culture; assay type: cell-based
in vivo = details: male, beagle, dog, po, 175 mg
[1] = Human immunodeficiency virus 1, MT4, 120 h, HIV-1 (IIIB) replication in MT-4 cells, 5 days incubation, Cell Titer Glo, read-out: MT4 EC50

solubility thermodynamic at 24 h (physchem)	EC50 (HIV-1 (IIIB); [1])	SMILES	CC50 (in vitro)	solubility thermodynamic (physchem; fassif)	EC50 (HIV-1 (IIIB); Human immunodeficiency virus 1, IIIB, MT4, 120 h, read-out: MT4 EC50 (nM))	CC50 at 5 days (in vitro)	bioavailability (in vivo)
–	–	CC1=NO[C@@]2(CC[C@H](C)N3C[C@H]2n2cc(C(=O)NCc4ccc(F)cc4F)c(=O)c(OC(=O)N(C)c4ncc(C(=O)N[C@@H](CC(=O)O)C(=O)O)cc4COP(=O)(O)O)c2C3=O)C1 [Compound 84, (6-(((((3′S,5S,7′R)-10′-((2,4-difluorobenzyl)carbamoyl)-3,3′-dimethyl-1′,11′-dioxo-1′,4′,5′,11′-tetrahydro-3′H,4H,7′H-spiro[isoxazole-5,6′-[2,7]methanopyrido[1,2-a][1,4]diazonin]-12′-yl)oxy)carbonyl)(methyl)amino)-5-((phosphonooxy)methyl)nicotinoyl)-L-aspartic acid]	≥ 50000 nM	5580 µg/mL (≈ 6270 µM)	38 nM	–	–
3 µg/mL (≈ 3.61 µM)	4.42 nM	CCCCCCCCCCCCCC(=O)OCc1ccccc1C(=O)Oc1c2n(cc(C(=O)NCc3ccc(F)cc3F)c1=O)[C@@H]1CN(C2=O)[C@@H](C)CC[C@]12CC(C)=NO2 [Compound 92, (3′S,5S,7′R)-10′-((2,4-difluorobenzyl)carbamoyl)-3,3′-dimethyl-1′,11′-dioxo-1′,4′,5′,11′-tetrahydro-3′H,4H,7′H-spiro[isoxazole-5,6′-[2,7]methanopyrido[1,2-a][1,4]diazonin]-12′-yl 2-((tetradecanoyloxy)methyl)benzoate]	–	–	–	≥ 50000 nM	–
19 µg/mL (≈ 22.9 µM)	3.2 nM	CCCCCCCCCCCCCC(=O)Nc1ccc(CC(=O)Oc2c3n(cc(C(=O)NCc4ccc(F)cc4F)c2=O)[C@@H]2CN(C3=O)[C@@H](C)CC[C@]23CC(C)=NO3)cc1 [Compound 94, (3′S,5S,7′R)-10′-((2,4-difluorobenzyl)carbamoyl)-3,3′-dimethyl-1′,11′-dioxo-1′,4′,5′,11′-tetrahydro-3′H,4H,7′H-spiro[isoxazole-5,6′-[2,7]methanopyrido[1,2-a][1,4]diazonin]-12′-yl 2-(4-tetradecanamidophenyl)acetate]	–	–	–	≥ 50000 nM	–
13.5 µg/mL (≈ 16.2 µM)	2.26 nM	CCCCCCCCCCCCCC(=O)Oc1ccc(CC(=O)Oc2c3n(cc(C(=O)NCc4ccc(F)cc4F)c2=O)[C@@H]2CN(C3=O)[C@@H](C)CC[C@]23CC(C)=NO3)cc1 [Compound 96, [4-[2-[(1R,10S,13S)-4-[(2,4-difluorophenyl)methylcarbamoyl]-3′,10-dimethyl-5,8-dioxo-spiro[2,9-diazatricyclo[7.4.1.02,7]tetradeca-3,6-diene-13,5′-4H-isoxazole]-6-yl]oxy-2-oxo-ethyl]phenyl] tetradecanoate]	–	–	–	≥ 50000 nM	–
13 µg/mL (≈ 15.6 µM)	3.03 nM	CCCCCCCCCCCCCC(=O)Oc1ccc(C(=O)Oc2c3n(cc(C(=O)NCc4ccc(F)cc4F)c2=O)[C@@H]2CN(C3=O)[C@@H](C)CC[C@]23CC(OC)=NO3)cc1 [Compound 99, (3′S,5S,7′R)-10′-((2,4-difluorobenzyl)carbamoyl)-3-methoxy-3′-methyl-1′,11′-dioxo-1′,4′,5′,11′-tetrahydro-3′H,4H,7′H-spiro[isoxazole-5,6′-[2,7]methanopyrido[1,2-a][1,4]diazonin]-12′-yl 4-(tetradecanoyloxy)benzoate]	–	–	–	≥ 50000 nM	–
64.5 µg/mL (≈ 79 µM)	2.94 nM	CCCCCCCCCCCCCC(=O)Oc1ccc(C(=O)Oc2c3n(cc(C(=O)NCc4ccc(F)cc4F)c2=O)[C@@H]2CN(C3=O)[C@@H](C)CC[C@]23CC(C)=NO3)cc1 [Compound 100, (3′S,5S,7′R)-10′-((2,4-difluorobenzyl)carbamoyl)-3,3′-dimethyl-1′,11′-dioxo-1′,4′,5′,11′-tetrahydro-3′H,4H,7′H-spiro[isoxazole-5,6′-[2,7]methanopyrido[1,2-a][1,4]diazonin]-12′-yl 4-(tetradecanoyloxy)benzoate]	–	–	–	12800 nM	–
–	–	CC1=NO[C@@]2(CC[C@H](C)N3C[C@H]2n2cc(C(=O)NCc4ccc(F)cc4F)c(=O)c(O)c2C3=O)C1 [Intermediate B, (3′S,5S,7′R)—N-(2,4-difluorobenzyl)-12′-hydroxy-3,3′-dimethyl-1′,11′-dioxo-1′,4′,5′,11′-tetrahydro-3′H,4H,7′H-spiro[isoxazole-5,6′-[2,7]methanopyrido[1,2-a][1,4]diazonine]-10′-carboxamide]	–	–	–	–	15.6%
–	–	COC1=NO[C@@]2(CC[C@H](C)N3C[C@H]2n2cc(C(=O)NCc4ccc(F)cc4F)c(=O)c(O)c2C3=O)C1 [Intermediate C, (3′S,5S,7′R)—N-(2,4-difluorobenzyl)-12′-hydroxy-3-methoxy-3′-methyl-1′,11′-dioxo-1′,4′,5′,11′-tetrahydro-3′H,4H,7′H-spiro[isoxazole-5,6′-[2,7]methanopyrido[1,2-a][1,4]diazonine]-10′-carboxamide]	–	–	–	–	14.5%

SMILES	solubility thermodynamic at 24 h (physchem)	EC50 (HIV-1 (IIIB); [1])	CC50 (in vitro)	solubility thermodynamic (physchem; fassif)	EC50 (HIV-1 (IIIB); Human immunodeficiency virus 1, IIIB, MT4, 120 h, read-out: MT4 EC50 (nM))	CC50 at 5 days (in vitro)	bioavailability (in vivo)
CCCCCCCCCCCCCC(=O)Nc1ccc(CC(=O)Oc2c3n(cc(C(=O)NCc4ccc(F)cc4F)c2=O)[C@@H]2CN(C3=O)[C@@H](C)CC[C@]23CC(OC)=NO3)cc1 [Compound 93, (3′S,5S,7′R)-10′-((2,4-difluorobenzyl)carbamoyl)-3-methoxy-3′-methyl-1′,11′-dioxo-1′,4′,5′,11′-tetrahydro-3′H,4H,7′H-spiro[isoxazole-5,6′-[2,7]methanopyrido[1,2-a][1,4]diazonin]-12′-yl 2-(4-tetradecanamidophenyl)acetate]	6 µg/mL (≈ 7.09 µM)	1.36 nM	–	–	–	≥ 50000 nM	–
